Measured values published in a compilation of properties of binary mixtures (doi:10.1016/j.jct.2020.106093).

Assay: xn = mol fraction of the nth substance listed
Conditions: 100.9 kPa, x2 = 0

O + CC(=O)[O-].CC[NH2+]CC
Conditions | speed of sound [m/s] | viscosity [mPa·s]
283.15 K | – | 1.306
288.15 K | – | 1.138
290.65 K | – | 1.066
293.15 K | – | 1.002
295.65 K | – | 0.943
298.15 K | – | 0.89
303.15 K | – | 0.797
305.65 K | – | 0.757
308.15 K | – | 0.719
310.65 K | – | 0.685
313.15 K | 1529.2 | 0.653
315.65 K | – | 0.624
318.15 K | 1536.8 | 0.596
323.15 K | – | 0.547
325.65 K | – | 0.525
328.15 K | – | 0.504
330.65 K | – | 0.485
333.15 K | – | 0.466
338.15 K | – | 0.433
340.65 K | – | 0.418
